Test system: MV4-11 cell
Test: MV4-11 cell proliferation experiment (CCK-8 cell viability)
Type: cell-based
Conditions: Homo sapiens, MV4-11 cells, 72-hour culture
Procedure: EXAMPLE 9 Cell Experiment (MV4-11 Cell Proliferation Experiment)
Determination of Cell Viability with CCK-8 Reagent
(1) MV4-11 cell suspension was pipetted from a culture flask into a 15 mL centrifuge tube, and the cell suspension was centrifuged at 1000 rpm for 4 minutes.
(2) A supernatant in the centrifuge tube was discarded, and an appropriate amount of fresh complete medium (IMDM+10% FBS+1% P/S) was added to resuspend the cells. 20 μL of cell suspension was collected, 20 μL of trypan blue was added, and CounterStar was used for counting.
(3) A required cell suspension volume and complete medium volume were calculated according to viable cell density and the required number of plated cells. MV4-11 cells were plated at a density of 1*10^4 cells/well in 100 μL/well.
(4) 100 μL of the above cell suspension was pipetted into a 96-well plate by using an electric pipette. 150 μL of complete medium was added to blank control wells. PBS was added to peripheral wells of the 96-well plate, to avoid liquid evaporation. The 96-well plate was cultured overnight in an incubator.
Day 2: Compound Preparation:
(1) The compound of the present application dissolved in DMSO and the positive control substance ABBV-744 were fetched, and subjected to serial dilution (dilution in column A, column B, . . . , column J sequentially from left to right in a 96-well PCR plate).
An initial concentration of the solution in column A is 10 mM;
Column B: 2 μL of the solution in column A was diluted with 8 μL of DMSO to obtain a final concentration of 2000 μM;
Column C: 2 μL of the solution in column B was diluted with 8 μL of DMSO to obtain a final concentration of 400 μM;
Column D: 2 μL of the solution in column C was diluted with 8 μL of DMSO to obtain a final concentration of 80 μM;
Column E: 2 μL of the solution in column D was diluted with 8 μL of DMSO to obtain a final concentration of 16 μM;
Column F: 2 μL of the solution in column E was diluted with 8 μL of DMSO to obtain a final concentration of 3.2 μM;
Column G: 2 μL of the solution in column F was diluted with 8 μL of DMSO to obtain a final concentration of 0.64 μM;
Column H: 2 μL of the solution in column G was diluted with 8 μL of DMSO to obtain a final concentration of 0.128 μM;
Column I: 2 μL of the solution in column H was diluted with 8 μL of DMSO to obtain a final concentration of 0.0256 μM; and
Column J: 2 μL of the solution in column I was diluted with 8 μL of DMSO to obtain a final concentration of 0.00512 μM.
The suspension was centrifuged for 1 minute at 1000 rpm by using a low-speed centrifuge.
(2) 3×Compound Preparation: (Diluted in a 96-Well Cell Culture Plate)
3 μL of each of the solutions in columns B to J was pipetted into […] of complete medium by a 10 μL manual pipette to obtain 3×compound solutions with a final concentration of 30000, 6000, 1200, 240, 48, 9.6, 1.92, 0.384 and 0.0768 nM, respectively; and 3 μL of DMSO was pipetted into […] of complete medium as a control. The resulting 96-well cell culture plate was put on an oscillator to be oscillated at 500 rpm for 30 minutes.
(1) The prepared 3×compound solutions with the above concentrations were each pipetted by a manual pipette with its volume set to 50 μL into a corresponding well of the 96-well plate after overnight culture on the first day, and the total culture volume of each well was 150 μL. The final concentrations of the compounds in the 96-well plate were 10 μM, 2 μM, 400 nM, 80 nM, 16 nM, 3.2 nM, 0.64 nM, 0.128 nM and 0.0256 nM, respectively. The resulting 96-well plate was put on an oscillator to be oscillated at 500 rpm for 10 minutes.
(2) The 96-well plate as prepared was put in a CO2 incubator for 72-hour culture.
(1) CCK-8 test solution was pipetted into the 96-well cell culture plate in an amount of 15 μL/well by a pipette with a volume set to 15 μL.
(2) The 96-well plate was put in the CO2 incubator for 4-hour culture. […]

IC50: 1.98 nM
Compound: CCNC(=O)c1cc2c(-c3sc(C(C)(C)O)cc3N3CCc4ccccc43)cn(C)c(=O)c2[nH]1 [Compound 1, N-ethyl-4-(5-(2-hydroxypropyl-2-yl)-3-(indolin-1-yl)thiophen-2-yl)-6-methyl-7-oxo-6,7-dihydro-1H-pyrrolo[2,3-c]pyridine-2-carboxamide]

Reference: patent US20230357240A1, “NOVEL N-HETEROCYCLIC BET BROMODOMAIN INHIBITOR, AND PREPARATION METHOD THEREOF AND MEDICAL USE THEREOF” (Chengdu Easton Biopharmaceuticals Co., Ltd., priority 2020, published 2023)
